How the values were obtained:
[1] = molecular target: FLT3 enzyme (GST-FLT3 fusion) (Homo sapiens (Human), UniProt P36888); assay: FLT3 HTRF kinase assay; type: biochemical; settings: 116 μM ATP
Protocol: The FLT3 inhibitory activity of the CDK4/6-FLT3 inhibitors was determined with a HTRF kinase assay. The FLT3 enzyme (GST-FLT3 fusion) was purchased from Carna Biosciences. An ULight-labeled synthetic peptide derived from human Janus kinase 1 (aa1015-1027, ULight-JAK1, PerkinElmer) was utilized as the phosphoacceptor substrate. The assay was conducted in a 384-well white OptiPlate (PerkinElmer). The 20 μL reaction mixture contained 50 nM ULight-JAK1, 116 μM ATP, 0.0385 ng/μL FLT3 and dilutions of test compounds in the kinase buffer (50 mM Hepes, pH 7.6, 1 mM EGTA, 10 mM MgCl2, 2 mM DTT, and 0.005% Tween 20). The reaction was allowed to proceed for 1 hour at room temperature and was stopped by adding 20 μL of 10 mM EDTA, 2 nM LANCE® Eu-W1024 anti-phospho-tyrosine antibody in LANCE® detection buffer (PerkinElmer). The plates were incubated at room temperature for 2 hours after addition of detection reagents and then read on an Envision multimode reader (PerkinElmer).
(§1) IC50 values of the compounds in the above assays were determined by non-linear regression analysis using Prism (GraphPad Software).

[2] = tested on: MOLM13 cells; assay: [14C]-thymidine incorporation cell proliferation assay, MOLM13; type: cell-based, human
Protocol: The cell proliferation inhibition potency of the CDK4/6-FLT3 inhibitors was determined by using a [^14C]-thymidine incorporation assay. Exponentially growing cells (MOLM-13, Colo-205, etc.) were seeded in a 96-well Cytostar T plate (GE Healthcare Biosciences) at a density of 5×10^3 cells/well and incubated overnight. Serially diluted compounds and 0.1 μCi of [^14C]-thymidine (GE Healthcare Biosciences) were added to each well on the following day. After 72 hour incubation, isotope incorporation was determined with a β plate counter (Wallac). MOLM13 is a human AML tumor cell line expressing FLT3, FLT3^ITD and wild type Rb.
as §1

[3] = molecular target: CDK4/Cyclin D1 (Homo sapiens (Human), UniProt P11802); assay: CDK4 filtration kinase assay; type: biochemical; settings: CDK4/Cyclin D1, Rb fragment substrate, [33P]-ATP filtration assay
CDK4/Cyclin D1, sequence (P11802 whole entry, the tested form may be a part): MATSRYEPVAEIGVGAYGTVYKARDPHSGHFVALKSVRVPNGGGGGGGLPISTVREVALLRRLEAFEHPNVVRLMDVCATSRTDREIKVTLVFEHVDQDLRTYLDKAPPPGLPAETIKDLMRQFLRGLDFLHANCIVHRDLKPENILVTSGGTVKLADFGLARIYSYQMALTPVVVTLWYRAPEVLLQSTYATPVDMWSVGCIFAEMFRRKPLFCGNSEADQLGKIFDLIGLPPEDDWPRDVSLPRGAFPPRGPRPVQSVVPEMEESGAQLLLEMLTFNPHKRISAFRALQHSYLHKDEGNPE
CDK4/Cyclin D1, sequence (P24385 whole entry partner, the tested form may be a part): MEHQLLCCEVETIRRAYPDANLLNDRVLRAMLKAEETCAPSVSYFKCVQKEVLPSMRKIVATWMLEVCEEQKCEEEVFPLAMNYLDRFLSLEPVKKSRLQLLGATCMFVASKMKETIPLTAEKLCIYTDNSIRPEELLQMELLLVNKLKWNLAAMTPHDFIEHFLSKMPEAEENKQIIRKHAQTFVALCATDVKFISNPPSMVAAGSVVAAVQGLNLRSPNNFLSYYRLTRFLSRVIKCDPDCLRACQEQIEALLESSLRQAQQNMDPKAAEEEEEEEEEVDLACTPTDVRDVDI
Protocol: The CDK4 and CDK1 inhibitory activity of the CDK4/6-FLT3 inhibitors was determined with a filtration kinase assay. The compounds, kinase and substrate diluted in the kinase buffer (20 mM Tris, pH7.4, 50 mM NaCl, 1 mM DTT, 0.1% BSA) were sequentially added to a 96-well Multiscreen HTS filtration plate (Millipore). The final 100 μL reaction mixture in each well contained 0.3 μg of CDK4/Cyclin D1 or CDK1/Cyclin B (Cell Signaling Technology), 1 μg of Rb fragment (aa773-928, Millipore) for the CDK4 assay or 5 μg of histone H1 for the CDK1 assay and 1 μCi of [^33P]-ATP. The mixture was incubated at room temperature for 1 hour. The proteins in the reaction were then precipitated and washed with cold TCA solution using an aspiration/filtration vacuum system. The plates were dried at room temperature, and the retained radioactivity was measured by scintillation counting.
as §1

[4] = Homo sapiens, MOLM-13, 72 hour incubation

FLT3 enzyme (GST-FLT3 fusion), sequence (P36888 27-993): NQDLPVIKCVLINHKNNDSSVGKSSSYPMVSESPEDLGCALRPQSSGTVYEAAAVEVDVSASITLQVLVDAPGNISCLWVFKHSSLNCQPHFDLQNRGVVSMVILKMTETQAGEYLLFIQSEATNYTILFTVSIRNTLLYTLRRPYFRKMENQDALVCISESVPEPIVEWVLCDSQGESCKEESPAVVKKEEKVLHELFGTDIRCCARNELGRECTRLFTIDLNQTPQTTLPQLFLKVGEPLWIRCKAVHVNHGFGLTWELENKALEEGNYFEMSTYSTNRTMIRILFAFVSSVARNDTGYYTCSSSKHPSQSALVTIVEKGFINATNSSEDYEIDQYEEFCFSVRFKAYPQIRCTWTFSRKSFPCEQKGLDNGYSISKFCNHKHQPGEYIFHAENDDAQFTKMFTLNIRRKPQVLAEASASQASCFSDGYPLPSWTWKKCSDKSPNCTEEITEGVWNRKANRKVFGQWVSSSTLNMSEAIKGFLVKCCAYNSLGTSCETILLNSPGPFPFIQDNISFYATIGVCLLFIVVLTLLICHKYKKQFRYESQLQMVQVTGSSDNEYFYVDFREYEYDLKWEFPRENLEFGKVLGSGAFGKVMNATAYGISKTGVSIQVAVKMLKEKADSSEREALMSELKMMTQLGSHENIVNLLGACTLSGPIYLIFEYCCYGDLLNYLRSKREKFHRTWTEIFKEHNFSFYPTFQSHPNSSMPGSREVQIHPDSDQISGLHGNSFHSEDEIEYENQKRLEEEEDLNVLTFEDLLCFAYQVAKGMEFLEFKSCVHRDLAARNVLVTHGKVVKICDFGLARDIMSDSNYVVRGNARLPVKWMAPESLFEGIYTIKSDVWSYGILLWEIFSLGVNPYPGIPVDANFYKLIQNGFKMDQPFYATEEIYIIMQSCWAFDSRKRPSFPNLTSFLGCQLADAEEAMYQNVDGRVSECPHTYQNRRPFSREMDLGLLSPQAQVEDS

IC50 [1] [nM] | IC50 [2, 4] [nM] | IC50 [3] [nM] | IC50 ([2]; 72 hour incubation) [nM] | Compound
2.7 | 10.8 | 18.4 | – | C[C@H]1CC[C@H](n2c3cnccc3c3cnc(Nc4cc5c(cn4)CCN(CCO)C5)nc32)CC1 [Example 12, 2-(7-((9-((1r,4r)-4-Methylcyclohexyl)-9H-pyrido[4′,3′:4,5]pyrrolo[2,3-d]pyrimidin-2-yl)amino)-3,4-dihydro-2,6-naphthyridin-2(1H)-yl)ethanol]
2.3 | – | 463 | 20 | CC(=O)N1Cc2ccc(Nc3ncc4c5ccncc5n([C@H]5CC[C@H](C)CC5)c4n3)nc2[C@@H](C)C1 (single isomer, unassigned) [Example 18b, 1-((R)-8-Methyl-2-((9-((1 r,4R)-4-methylcyclohexyl)-9H-pyrido[4′,3′:4,5]pyrrolo[2,3-d]pyrimidin-2-yl)amino)-7,8-dihydro-1,6-naphthyridin-6(5H)-yl)ethanone or 1-((S)-8-methyl-2-09-((1r,4S)-4-methylcyclohexyl)-9H-pyrido[4′,3′:4,5]pyrrolo[2,3-d]pyrimidin-2-yl)amino)-7,8-dihydro-1,6-naphthyridin-6(5H)-yl)ethanone]
3.3 | 46 | 120 | – | C[C@H]1CC[C@H](n2c3cnccc3c3cnc(Nc4ccc5c(n4)CCN(C(=O)C(=O)O)C5)nc32)CC1 [Example 6, 2-(2-((9-((1r,4r)-4-Methylcyclohexyl)-9H-pyrido[4′,3′:4,5]pyrrolo[2,3-d]pyrimidin-2-yl)amino)-7,8-dihydro-1,6-naphthyridin-6(5H)-yl)-2-oxoacetic acid]
0.65 | 5.2 | 36 | – | O=C(CO)N1CCc2nc(Nc3ncc4c5ccncc5n(C5CCCC5)c4n3)ccc2C1 [Example 22, 1-(2-((9-Cyclopentyl-9H-pyrido[4′,3′:4,5]pyrrolo[2,3-d]pyrimidin-2-yl)amino)-7,8-dihydro-1,6-naphthyridin-6(5H)-yl)-2-hydroxyethanone]
3.2 | 22.5 | 4.5 | – | CC(=O)N1CCc2nc(Nc3ncc4c5ccncc5n([C@H]5CC[C@H](C)CC5)c4n3)ccc2C1 [Example 2, 1-(2-((9-((1r,4r)-4-Methylcyclohexyl)-9H-pyrido[4′,3′:4,5]pyrrolo[2,3-d]pyrimidin-2-yl)amino)-7,8-dihydro-1,6-naphthyridin-6(5H)-yl)ethanone]
1.8 | 54.5 | 31.3 | – | CC1CNCc2ccc(Nc3ncc4c5ccncc5n([C@H]5CC[C@H](C)CC5)c4n3)nc21 (stereo partly drawn) [Example 13, N-(8-Methyl-5,6,7,8-tetrahydro-1,6-naphthyridin-2-yl)-9-((1r,4r)-4-methylcyclohexyl)-9H-pyrido[4′,3′:4,5]pyrrolo[2,3-d]pyrimidin-2-amine]
3.2 | 10.6 | 4.4 | – | CC(=O)N1Cc2ccc(Nc3ncc4c5ccncc5n([C@H]5CC[C@H](C)CC5)c4n3)nc2C(C)C1 (stereo partly drawn) [Example 14, 1-(8-Methyl-2-((9-((1r,4r)-4-methylcyclohexyl)-9H-pyrido[4′,3′:4,5]pyrrolo[2,3-d]pyrimidin-2-yl)amino)-7,8-dihydro-1,6-naphthyridin-6(5H)-yl)ethanone]
1.4 | 23.9 | 16.5 | – | C[C@H]1CC[C@H](n2c3cnccc3c3cnc(Nc4ccc5c(n4)C(O)CNC5)nc32)CC1 (stereo partly drawn) [Example 16, 2-((9-((1r,4r)-4-Methylcyclohexyl)-9H-pyrido[4′,3′:4,5]pyrrolo[2,3-d]pyrimidin-2-yl)amino)-5,6,7,8-tetrahydro-1,6-naphthyridin-8-ol]
1.7 | 33.2 | 10.5 | – | COCCN1CCc2nc(Nc3ncc4c5ccncc5n([C@H]5CC[C@H](C)CC5)c4n3)ccc2C1 [Example 10, N-(6-(2-Methoxyethyl)-5,6,7,8-tetrahydro-1,6-naphthyridin-2-yl)-9-((1r,4r)-4-methylcyclohexyl)-9H-pyrido[4′,3′:4,5]pyrrolo[2,3-d]pyrimidin-2-amine]
1.6 | – | 18.8 | 24.2 | CC(=O)N1Cc2ccc(Nc3ncc4c5ccncc5n([C@H]5CC[C@H](C)CC5)c4n3)nc2[C@H](C)C1 (single isomer, unassigned) [Example 18a, 1((R)-8-Methyl-2-((9-((1r,4R)-4-methylcyclohexyl)-9H-pyrido[4′,3′:4,5]pyrrolo[2,3-d]pyrimidin-2-yl)amino)-7,8-dihydro-1,6-naphthyridin-6(5H)-yl)ethanone or 1((S)-8-methyl-2-((9-((1r,4S)-4-methylcyclohexyl)-9H-pyrido[4′,3′:4,5]pyrrolo[2,3-d]pyrimidin-2-yl)amino)-7,8-dihydro-1,6-naphthyridin-6(5H)-yl)ethanone]
36.1 | 9.1 | 2.4 | – | CS(=O)(=O)CCN1CCc2nc(Nc3ncc4c5ccncc5n([C@H]5CC[C@H](C)CC5)c4n3)ccc2C1 [Example 8, 9-((1r,4r)-4-Methylcyclohexyl)-N-(6-(2-(methylsulfonyl)ethyl)-5,6,7,8-tetrahydro-1,6-naphthyridin-2-yl)-9H-pyrido[4′,3′:4,5]pyrrolo[2,3-d]pyrimidin-2-amine]

Source: patent US8623885B2, “Fused tricyclic dual inhibitors of CDK 4/6 and FLT3” (Amgen Inc., priority 2011, dated 2014)
